Structures can show the parent of a compound that is named as a salt.
Target: T1, ERα (Homo sapiens, UniProt P03372)
T1 construct: host or cells: MCF7
T1 sequence (P03372 1-595): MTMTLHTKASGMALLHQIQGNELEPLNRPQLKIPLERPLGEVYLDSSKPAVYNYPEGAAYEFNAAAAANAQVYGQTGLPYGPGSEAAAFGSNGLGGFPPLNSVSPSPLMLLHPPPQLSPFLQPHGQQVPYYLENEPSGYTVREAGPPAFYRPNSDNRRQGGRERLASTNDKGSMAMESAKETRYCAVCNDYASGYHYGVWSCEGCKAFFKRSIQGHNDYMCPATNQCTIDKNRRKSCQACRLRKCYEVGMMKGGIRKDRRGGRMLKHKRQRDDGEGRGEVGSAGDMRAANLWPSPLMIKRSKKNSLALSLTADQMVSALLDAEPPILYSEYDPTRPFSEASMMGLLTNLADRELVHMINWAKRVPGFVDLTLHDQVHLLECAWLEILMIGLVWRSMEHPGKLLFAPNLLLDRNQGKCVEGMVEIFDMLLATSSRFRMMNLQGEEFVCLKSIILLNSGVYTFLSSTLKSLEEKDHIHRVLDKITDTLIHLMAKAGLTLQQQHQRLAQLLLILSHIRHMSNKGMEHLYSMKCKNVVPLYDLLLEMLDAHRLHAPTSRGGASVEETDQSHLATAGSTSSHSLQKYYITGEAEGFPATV
Test: Estrogen receptor degradation activity: breast cancer cell ERα in cell western assay (MCF7 cells)
Type: cell-based
Settings: for % Degradation At 0.3 μM: 4 hours, relative to fulvestrant 0.1 μM positive control; for DC50: 4 hours post compound addition, concentration which degrades 50% of the estrogen receptor, read-out: Degradation IC50
How it was run: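 In-cell western readout: ERα immunofluorescence (Alexa 488) normalised to DNA signal (Syto-64) after formalin fixation. Compounds dosed for 4 h on MCF7 cells in stripped-serum, phenol-red-free medium over nine 1:5 steps, 0.3 to […] final; fulvestrant 0.1 μM control. IC50 in nM for 50% ERα degradation.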

| % Degradation At 0.3 μM [%] | DC50 [nM] | SMILES |
| --- | --- | --- |
| 94 | 0.2 | O=C(O)c1ccc2c(c1)CCCC(c1ccc(F)cc1C(F)(F)F)=C2c1ccc(C=C2CN(CCCF)C2)cc1 [Example 95, 8-(4-fluoro-2-(trifluoromethyl)phenyl)-9-(4-((1-(3-fluoropropyl)azetidin-3-ylidene)methyl)phenyl)-6,7-dihydro-5H-benzo[7]annulene-3-carboxylic acid] |
| 98 | 0.2 | CCc1cc(F)ccc1C1=C(c2ccc(C=C3CN(CCCF)C3)cc2)c2ccc(C(=O)O)cc2CCC1 [Example 96, 8-(2-ethyl-4-fluorophenyl)-9-(4-((1-(3-fluoropropyl)azetidin-3-ylidene)methyl)phenyl)-6,7-dihydro-5H-benzo[7]annulene-3-carboxylic acid] |
| 95 | 0.2 | Cc1cccc(C)c1C1=C(c2ccc(C=C3CN(CCCF)C3)cc2)c2ccc(C(=O)O)cc2CCC1 [Example 97, 8-(2,6-dimethylphenyl)-9-(4-((1-(3-fluoropropyl)azetidin-3-ylidene)methyl)phenyl)-6,7-dihydro-5H-benzo[7]annulene-3-carboxylic acid] |
| 96 | 0.3 | Cc1cc(F)ccc1C1=C(c2ccc(C=C3CN(CCCF)C3)cc2)c2ccc(C(=O)O)cc2CCC1 [Example 98, 8-(4-fluoro-2-methylphenyl)-9-(4-((1-(3-fluoropropyl)azetidin-3-ylidene)methyl)phenyl)-6,7-dihydro-5H-benzo[7]annulene-3-carboxylic acid] |
| 95 | 0.3 | Cc1ccccc1C1=C(c2ccc(C=C3CN(CCCF)C3)cc2)c2ccc(C(=O)O)cc2CCC1 [Example 99, 9-(4-((1-(3-fluoropropyl)azetidin-3-ylidene)methyl)phenyl)-8-(o-tolyl)-6,7-dihydro-5H-benzo[7]annulene-3-carboxylic acid] |
| 94 | 0.3 | CC(C)CC1=C(c2ccc(C=C3CN(CCCF)C3)cc2)c2ccc(C(=O)O)cc2CCC1 [Example 100, 9-(4-((1-(3-Fluoropropyl)azetidin-3-ylidene)methyl)phenyl)-8-isobutyl-6,7-dihydro-5H-benzo[7]annulene-3-carboxylic acid] |
| 93 | 0.4 | Cl.O=C(O)c1ccc2c(c1)CCCC(c1ccc(Cl)cc1Cl)=C2c1ccc(C=C2CN(CCCF)C2)cc1F [Example 101, 8-(2,4-dichlorophenyl)-9-(2-fluoro-4-((1-(3-fluoropropyl)azetidin-3-ylidene)methyl)phenyl)-6,7-dihydro-5H-benzo[7]annulene-3-carboxylic acid hydrochloride] |
| 89 | 0.3 | CC(=C1CN(CCCF)C1)c1ccc(C2=C(c3ccc(Cl)cc3Cl)CCCc3cc(C(=O)O)ccc32)cc1 [Example 102, 8-(2,4-Dichlorophenyl)-9-(4-(1-(1-(3-fluoropropyl)azetidin-3-ylidene)ethyl)phenyl)-6,7-dihydro-5H-benzo[7]annulene-3-carboxylic acid] |
| 92 | 0.2 | Cl.O=C(O)c1ccc2c(c1)CCCC(c1ccc(Cl)cc1Cl)=C2c1ccc(C=C2CN(CCCF)C2)c(F)c1 [Example 103, 8-(2,4-dichlorophenyl)-9-(3-fluoro-4-((1-(3-fluoropropyl)azetidin-3-ylidene)methyl)phenyl)-6,7-dihydro-5H-benzo[7]annulene-3-carboxylic acid hydrochloride] |
| 79 | 4.9 | Cc1cc(C2=C(c3ccc(Cl)cc3Cl)CCCc3cc(C(=O)O)ccc32)cc(C)c1C=C1CN(CCCF)C1.Cl [Example 104, 8-(2,4-dichlorophenyl)-9-(4-((1-(3-fluoropropyl)azetidin-3-ylidene)methyl)-3,5-dimethylphenyl)-6,7-dihydro-5H-benzo[7]annulene-3-carboxylic acid hydrochloride] |
| 94 | 0.1 | Cl.O=C(O)c1ccc2c(c1)CCCC(c1ccc(Cl)cc1Cl)=C2c1cc(F)c(C=C2CN(CCCF)C2)c(F)c1 [Example 105, 8-(2,4-dichlorophenyl)-9-(3,5-difluoro-4-((1-(3-fluoropropyl)azetidin-3-ylidene)methyl)phenyl)-6,7-dihydro-5H-benzo[7]annulene-3-carboxylic acid] |
| 93 | 1 | Cl.O=C(O)c1ccc2c(c1)CCC(c1ccc(Cl)cc1Cl)=C2c1ccc(C=C2CN(CCCF)C2)cc1 [Example 106, 6-(2,4-dichlorophenyl)-5-(4-((1-(3-fluoropropyl)azetidin-3-ylidene)methyl)phenyl)-7,8-dihydronaphthalene-2-carboxylic acid hydrochloride] |
| 93 | 1.3 | O=C(O)c1ccc2c(c1)CCCC(c1cccc(Cl)c1C(F)(F)F)=C2c1ccc(C=C2CN(CCC(F)(F)F)C2)cc1 [Example 107, 8-(3-chloro-2-(trifluoromethyl)phenyl)-9-(4-((1-(3,3,3-trifluoropropyl)azetidin-3-ylidene)methyl)phenyl)-6,7-dihydro-5H-benzo[7]annulene-3-carboxylic acid] |
| 92 | 1.2 | O=C(O)c1ccc2c(c1)CCCC(c1ccc(F)cc1C(F)(F)F)=C2c1ccc(C=C2CN(CCC(F)(F)F)C2)cc1 [Example 108, 8-(4-fluoro-2-(trifluoromethyl)phenyl)-9-(4-((1-(3,3,3-trifluoropropyl)azetidin-3-ylidene)methyl)phenyl)-6,7-dihydro-5H-benzo[7]annulene-3-carboxylic acid] |
| 91 | 1.4 | O=C(O)c1ccc2c(c1)CCCC(c1ccc(Cl)cc1Cl)=C2c1ccc(C=C2CN(CCC(F)(F)F)C2)cc1 [Example 109, 8-(2,4-dichlorophenyl)-9-(4-((1-(3,3,3-trifluoropropyl)azetidin-3-ylidene)methyl)phenyl)-6,7-dihydro-5H-benzo[7]annulene-3-carboxylic acid] |
| 93 | 2.9 | Cc1cccc(C2=C(c3ccc(C=C4CN(CCC(F)(F)F)C4)cc3)c3ccc(C(=O)O)cc3CCC2)c1C(F)(F)F [Example 110, 8-(3-methyl-2-(trifluoromethyl)phenyl)-9-(4-((1-(3,3,3-trifluoropropyl)azetidin-3-ylidene)methyl)phenyl)-6,7-dihydro-5H-benzo[7]annulene-3-carboxylic acid] |
| 90 | 1 | Cc1c(C2=C(c3ccc(C=C4CN(CCC(F)(F)F)C4)cc3)c3ccc(C(=O)O)cc3CCC2)ccc(Cl)c1F [Example 111, 8-(4-chloro-3-fluoro-2-methylphenyl)-9-(4-((1-(3,3,3-trifluoropropyl)azetidin-3-ylidene)methyl)phenyl)-6,7-dihydro-5H-benzo[7]annulene-3-carboxylic acid] |
| 100 | 27.8 | Cc1c(C2=C(c3ccc(C=C4CN(CCC(F)(F)F)C4)cc3)c3ccc(C(=O)O)cc3CCC2)ccc(F)c1F [Example 112, 8-(3,4-difluoro-2-methylphenyl)-9-(4-((1-(3,3,3-trifluoropropyl)azetidin-3-ylidene)methyl)phenyl)-6,7-dihydro-5H-benzo[7]annulene-3-carboxylic acid] |
| 90 | 0.3 | Cc1cc(C(F)(F)F)ccc1C1=C(c2ccc(C=C3CN(CCC(F)(F)F)C3)cc2)c2ccc(C(=O)O)cc2CCC1 [Example 113, 8-(2-methyl-4-(trifluoromethyl)phenyl)-9-(4-((1-(3,3,3-trifluoropropyl)azetidin-3-ylidene)methyl)phenyl)-6,7-dihydro-5H-benzo[7]annulene-3-carboxylic acid] |
| 91 | 0.4 | O=C(O)c1ccc2c(c1)OCCC(c1ccc(Cl)cc1Cl)=C2c1ccc(C=C2CN(CCCF)C2)cc1 [Example 114, 4-(2,4-Dichlorophenyl)-5-(4-((1-(3-fluoropropyl)azetidin-3-ylidene)methyl)phenyl)-2,3-dihydrobenzo[b]oxepine-8-carboxylic acid hydrochloride] |
| 100 | 120 | Cl.O=C(O)c1ccc2c(c1)SCCC(c1ccc(Cl)cc1Cl)=C2c1ccc(C=C2CN(CCCF)C2)cc1 [Example 115, 4-(2,4-dichlorophenyl)-5-[4-[[1-(3-fluoropropyl)azetidin-3-ylidene]methyl]phenyl]-2,3-dihydro-1-benzothiepine-8-carboxylic acid; hydrochloride] |
| 90 | 0.7 | Cc1cccc(C2=C(c3ccc(C=C4CN(CCC(F)F)C4)cc3)c3ccc(C(=O)O)cc3CCC2)c1C(F)(F)F [Example 116, 9-(4-((1-(3,3-difluoropropyl)azetidin-3-ylidene)methyl)phenyl)-8-(3-methyl-2-(trifluoromethyl)phenyl)-6,7-dihydro-5H-benzo[7]annulene-3-carboxylic acid] |
